What was measured:
Assay type in all cases: in vivo, mouse
[1] = tested on: PTH1R KO mice; assay: iPTH in PTH1R KO and PTH1R+/+ mice: PPCT IVD volume
Procedure: Mice carrying the PTH1R gene flanked by loxP sites (PTH1R^flox/flox) were mated with Noto^Cre mice to generate mice bearing Noto^Cre and a floxed PTH1R allele in their germline. These mice were backcrossed to homozygous floxed mice (Noto^Cre/+/PTH1R^flox/+::PTH1R^flox/flox) to generate mice with inactivation of both alleles in notochord derived cells (genotype Noto^+/+::PTH1R^flox/flox). […] The genotype of transgenic mice was determined by PCR analyses of genomic DNA isolated from mouse tails. […] The images were reconstructed and analyzed using the GPU-CT-Reconstruction software (applied by the BL13W1 experimental station) and the VG Studio Max 3D software (version 2.1, Volume Graphics GmbH, Germany) respectively. […] The 3D quantitative analysis of IVDs was performed with the commercially available Image Pro Analyzer 3D software (Version 7.0, Media Cybernetics, Inc., USA). The 3D structural parameters analyzed for the mean height and volume and thickness distribution of IVDs. The trabecular bone of L4 was segmented from the bone marrow and analyzed to determine the trabecular bone volume fraction (BV/TV), trabecular thickness (Tb. Th), trabecular number (Tb. N) and trabecular separation (Tb. Sp).

[2] = tested on: αvβ integrins; assay: Immunostaining of αvβ integrins in IVD sections of aged mice; details: 18-month old mice; only αvβ6 among αvβ3, αvβ5, αvβ6, β8
Procedure: For immunocytochemical staining, we incubated GFP labeled NP cells co-stained with primary antibody to rabbit PTH1R PRB-635P (Covance, 1:100) for 1 h and subsequently stained with secondary antibodies conjugated with fluorescence at room temperature. At the time of euthanasia, we dissected and fixed the lumbar vertebral spine in 10% buffered formalin for 48 h, decalcified them in 10% EDTA (pH 7.4) for 14-21 days and embedded them in paraffin or optimal cutting temperature (OCT) compound (Sakura Finetek). Fourmicrometer-thick coronal-oriented sections of the L1-L6 spine were processed for safranin O and fast green staining. Sections for immunostaining was performed using a standard protocol and incubated with primary antibodies to rabbit ACAN (Abcam, 1:100), CCN2 (Abcam, 1:100), integrin β8 (Abcam, 1:200), pCREB (Abcam, 1:100) and PTH1R PRB-635P (Covance, 1:100), mouse pSmad2/3 (Santa Cruz, 1:100), integrin αvβ6 (Millipore, 1:100), integrin αvβ3 (Bioss, 1:100,), integrin αvβ5 (Bioss, 1:100) at 4° C. overnight. For immunohistochemical staining, a horse radish peroxidase-streptavidin detection system (Dako) was subsequently used to detect the immunoactivity, followed by counterstaining with hematoxylin (Sigma-Aldrich). For immunofluorescent assay, the slides were incubated with secondary antibodies conjugated with fluorescence at room temperature for 1 h while avoiding light. […]

[3] = tested on: NP cells; assay: iPTH in IFT88-/- and wild-type mice: immunostaining of pSmad2/3, CCN2, ACAN
Procedure: The 11 month-old PTH1R^+/+ and PTH1R^−/− male mice were randomized into four groups: PTH1R^+/++PTH (1-34), PTH1R^+/++Vehicle, PTH1R^−/−+PTH (1-34) and PTH1R^−/−+Vehicle groups (n=8 per group). The 11 month-olds IFT88^+/+ and IFT88^−/− male mice were randomized into four groups: IFT88^+/++PTH (1-34), IFT88^+/++Vehicle, IFT88^−/−+PTH (1-34) and IFT88^−/−+Vehicle groups (n=8 per group). Mice were subcutaneously injected with either PTH (1-34) or vehicle (1 mM acetic acid in phosphate buffered saline (PBS) with equivalent volume of PTH) daily, 5 days per week, and all mice were sacrificed 4 weeks after treatment with PTH (1-34)/vehicle.
For immunocytochemical staining, we incubated GFP labeled NP cells co-stained with primary antibody to rabbit PTH1R PRB-635P (Covance, 1:100) for 1 h and subsequently stained with secondary antibodies conjugated with fluorescence at room temperature. At the time of euthanasia, we dissected and fixed the lumbar vertebral spine in 10% buffered formalin for 48 h, decalcified them in 10% EDTA (pH 7.4) for 14-21 days and embedded them in paraffin or optimal cutting temperature (OCT) compound (Sakura Finetek). Fourmicrometer-thick coronal-oriented sections of the L1-L6 spine were processed for safranin O and fast green staining. Sections for immunostaining was performed using a standard protocol and incubated with primary antibodies to rabbit ACAN (Abcam, 1:100), CCN2 (Abcam, 1:100), integrin β8 (Abcam, 1:200), pCREB (Abcam, 1:100) and PTH1R PRB-635P (Covance, 1:100), mouse pSmad2/3 (Santa Cruz, 1:100), integrin αvβ6 (Millipore, 1:100), integrin αvβ3 (Bioss, 1:100,), integrin αvβ5 (Bioss, 1:100) at 4° C. overnight. For immunohistochemical staining, a horse radish peroxidase-streptavidin detection system (Dako) was subsequently used to detect the immunoactivity, followed by counterstaining with hematoxylin (Sigma-Aldrich). For immunofluorescent assay, the slides were incubated with secondary antibodies conjugated with fluorescence at room temperature for 1 h while avoiding light. We used isotype-matched controls, such as polyclonal rabbit IgG (R&D Systems, AB-105-C) under the same concentrations and conditions as negative controls. We micro photographed sections to perform histomorphometric measurements on the entire area of the L3-L4 of the spine (Olympus DP71).
Quantitative histomorphometric analysis was conducted in a blinded fashion with Image-Pro Plus Software version 6.0 (Media Cybernetics Inc). IVD histological score were obtained as previously described67. Five randomly selected sections per mice in each group at L3-L4 level were chosen for quantitative histomorphometric analysis. The percentage of pSmad2/3 and pCREB positive cells was obtained by counting the number of positive staining cells to the number of total cells in the NP region. The percentage area of CCN2 and ACAN positive staining was calculated by measuring the positive area to the whole area of the L3-L4 in each group.

[4] = wild-type mice relative to vehicle mice

CC[C@H](C)[C@H](NC(=O)[C@H](CCC(=O)O)NC(=O)[C@H](CO)NC(=O)[C@@H](NC(=O)[C@@H](N)CO)C(C)C)C(=O)N[C@@H](CCC(N)=O)C(=O)N[C@@H](CC(C)C)C(=O)N[C@@H](CCSC)C(=O)N[C@@H](Cc1cnc[nH]1)C(=O)N[C@@H](CC(N)=O)C(=O)N[C@@H](CC(C)C)C(=O)NCC(=O)N[C@@H](CCCCN)C(=O)N[C@@H](Cc1cnc[nH]1)C(=O)N[C@@H](CC(C)C)C(=O)N[C@@H](CC(N)=O)C(=O)N[C@@H](CO)C(=O)N[C@@H](CCSC)C(=O)N[C@@H](CCC(=O)O)C(=O)N[C@@H](CCCN=C(N)N)C(=O)N[C@H](C(=O)N[C@@H](CCC(=O)O)C(=O)N[C@@H](Cc1c[nH]c2ccccc12)C(=O)N[C@@H](CC(C)C)C(=O)N[C@@H](CCCN=C(N)N)C(=O)N[C@@H](CCCCN)C(=O)N[C@@H](CCCCN)C(=O)N[C@@H](CC(C)C)C(=O)N[C@@H](CCC(N)=O)C(=O)N[C@@H](CC(=O)O)C(=O)N[C@H](C(=O)N[C@@H](Cc1cnc[nH]1)C(=O)N[C@@H](CC(N)=O)C(=O)N[C@@H](Cc1ccccc1)C(=O)O)C(C)C)C(C)C [PTH (1-34), teriparatide]
increase of IVD volume by iPTH ([1]; 12-month-old PTH1R KO mice): abolished
IVD volume ([1]; 12-month-old PTH1R+/+ mice): Increase
level of αvβ6 integrin [2]: significantly increased
PTH effect on level of CCN2 ([3]; IFT88-/- mice): blunted
PTH effect on level of aggrecan ([3]; IFT88-/- mice): blunted
PTH effect on number of pSmad2/3+ NP cells ([3]; IFT88-/- mice): blunted
level of CCN2 [3, 4]: significantly stimulated
level of aggrecan [3, 4]: significantly stimulated
number of pSmad2/3+ NP cells [3, 4]: significantly stimulated

Source: US20210205638A1, “PARATHYROID HORMONE AND REGENERATION OF DEGENERATIVE DISCS DISEASE” (THE JOHNS HOPKINS UNIVERSITY, priority 2017, published 2021)
